Source: patent US9145408B2 (priority 2008, dated 2015)
Counter-ions that a name gives are not always drawn.

Experiments:
[1] = abnormal behavioral side effects (sedation, hyperactivity, hypoactivity); conditions: in vivo
[2] = tested on: FCA-induced thermal hyperalgesia; experiment: FCA model of inflammatory pain, thermal hyperalgesia; assay type: in vivo; conditions: rat FCA model
Procedure: (§1) Test Animals: Each experiment used rats weighing between 200-260 g at the start of the experiment. The rats were group-housed and had free access to food and water at all times, except prior to oral administration of a Substituted-Quinoxaline-Type Bridged-Piperidine Compound when food was removed for 16 hours before dosing. A control group acted as a comparison to rats treated with a Substituted-Quinoxaline-Type Bridged-Piperidine Compound. The control group was administered the carrier for the Substituted-Quinoxaline-Type Bridged-Piperidine Compound. The volume of carrier administered to the control group was the same as the volume of carrier and Substituted-Quinoxaline-Type Bridged-Piperidine Compound administered to the test group.
Inflammatory Pain: To assess the actions of a Substituted-Quinoxaline-Type Bridged-Piperidine Compound for the treatment or prevention of inflammatory pain, the Freund's complete adjuvant (“FCA”) model of inflammatory pain was used. […] The left hind paw of each animal was administered a 50 μL intraplantar injection of 50% FCA. 24 hour post injection, the animal was assessed for response to noxious mechanical stimuli by determining the PWT, or to noxious thermal stimuli by determining the PWL, as described below. […] Responses to noxious mechanical stimuli were then determined 1, 3, 5 and 24 hours post administration. Percentage reversal of hyperalgesia for each animal was defined as: […]
Response to Thermal Stimuli as an Assessment of Thermal Hyperalgesia: The plantar test can be used to assess thermal hyperalgesia. For this test, hind paw withdrawal latencies (PWL) to a noxious thermal stimulus were determined using a plantar test apparatus (commercially available from Ugo Basile of Italy) following the technique described by K. Hargreaves et al., “A New and Sensitive Method for Measuring Thermal Nociception in Cutaneous Hyperalgesia,” Pain 32(1):77-88 (1988). The maximum exposure time was set at 32 seconds to avoid tissue damage and any directed paw withdrawal from the heat source was taken as the end point. Three latencies were determined at each time point and averaged. Either only the affected (ipsilateral) paw was tested, or both the ipsilateral and contralateral (non-injured) paw were tested.

[3] = molecular target: hERG (human ether a-go-go gene) (Homo sapiens (Human), UniProt Q12809); experiment: cardiovascular side effects: in vitro hERG assay and APD in guinea pig purkinje fibers; assay type: cell-based; conditions: in vitro hERG assay; APD in guinea pig purkinje fibers
Procedure: These side effects were determined using known methods: an in vitro hERG (human ether a-go-go gene) assay as disclosed in Z. Zhou et al., “Properties of HERG Channels Stably Expressed in HEK 293 Cells Studied at Physiological Temperature,” Biophysical J. 74:230-241 (1998); and APD (action potential duration) in guinea pig purkinje fibers as disclosed in J. A. Hey, “The Guinea Pig Model for Assessing Cardiotoxic Proclivities of Second Generation Antihistamines,” Arzneimittelforschung 46(8):834-837 (1996).

[4] = tested on: nerve injury-induced mechanical hyperalgesia; experiment: Seltzer partial sciatic nerve ligation model of neuropathic pain, mechanical hyperalgesia; assay type: in vivo; conditions: rat Seltzer model, 3 mg/kg
Procedure: as §1
Partial ligation of the left sciatic nerve was performed under isoflurane/O2 inhalation anesthesia. Following induction of anesthesia, the left thigh of the rat was shaved and the sciatic nerve exposed at high thigh level through a small incision and was carefully cleared of surrounding connective tissues at a site near the trocanther just distal to the point at which the posterior biceps semitendinosus nerve branches off of the common sciatic nerve. A 7-0 silk suture was inserted into the nerve with a ⅜ curved, reversed-cutting mini-needle and tightly ligated so that the dorsal ⅓ to ½ of the nerve thickness was held within the ligature. The wound was closed with a single muscle suture (4-0 nylon (Vicryl)) and vetbond tissue glue. Following surgery, the wound area was dusted with antibiotic powder. Sham-treated rats underwent an identical surgical procedure except that the sciatic nerve was not manipulated. Following surgery, animals were weighed and placed on a warm pad until they recovered from anesthesia. Animals were then returned to their home cages until behavioral testing began. The animals were assessed for response to noxious mechanical stimuli by determining PWT, as described below, prior to surgery (baseline), then immediately prior to and 1, 3, and 5 hours after drug administration for rear paw of the animal. Percentage reversal of neuropathic hyperalgesia was defined as: […]
Response to Mechanical Stimuli as an Assessment of Mechanical Hyperalgesia: The paw pressure assay was used to assess mechanical hyperalgesia. For this assay, hind paw withdrawal thresholds (PWT) to a noxious mechanical stimulus were determined using an analgesymeter (Model 7200, commercially available from Ugo Basile of Italy) as described in C. […] The maximum weight that could be applied to the hind paw was set at 250 g and the end point is taken was complete withdrawal of the paw. PWT was determined once for each rat at each time point and either only the affected (ipsilateral) paw was tested, or both the ipsilateral and contralateral (non-injured) paw were tested.

[5] = 5 mg/kg dose, 3 hours after administration
[6] = 5 mg/kg dose, 5 hours after administration

| SMILES | abnormal behavioral side effects, such as sedation, hyperactivity and/or hypoactivity [1] | % reversal of thermal hyperalgesia ([2]; 3 mg/kg dose, 1 hour after administration) [%] | % reversal of thermal hyperalgesia ([2]; 3 mg/kg dose, 3 hours after administration) [%] | % reversal of thermal hyperalgesia ([2]; 3 mg/kg dose, 5 hours after administration) [%] | ED50 value for reversal of thermal hyperalgesia ([2]; 1 hour after administration) [mg/kg] | ED50 value for reversal of thermal hyperalgesia ([2]; 3 hours after administration) [mg/kg] | ED50 value for reversal of thermal hyperalgesia ([2]; 5 hours after administration) [mg/kg] | cardiovascular side effects [3] | % reversal of mechanical hyperalgesia ([4]; 1 hour after administration) [%] | % reversal of mechanical hyperalgesia ([4]; 3 hours after administration) [%] | % reversal of mechanical hyperalgesia ([4]; 5 hours after administration) [%] | % reversal of mechanical hyperalgesia ([4]; 7 hours after administration) [%] | % reversal of thermal hyperalgesia [2, 5] [%] | % reversal of thermal hyperalgesia [2, 6] [%] | % reversal of thermal hyperalgesia ([2]; 5 mg/kg dose, 1 hour after administration) [%] |
| --- | --- | --- | --- | --- | --- | --- | --- | --- | --- | --- | --- | --- | --- | --- | --- |
| O=C(O)c1nc2ccccc2n([C@H]2C[C@H]3CCC[C@@H](C2)N3C2CC3CCCC(C3)C2)c1=O (stereo partly drawn) [Compound 362, 4-((endo)-9-((exo)-bicyclo[3.3.1]nonan-3-yl)-9-azabicyclo[3.3.1]nonan-3-yl)-3-oxo-3,4-dihydroquinoxaline-2-carboxylic acid] | reduced abnormal behavioral side effects | 86 | 51 | 27 | 0.8 | 1.5 | 3.0 | reduced cardiovascular side effects | 60 | 60 | 50 | 40 | – | – | – |
| O=C(O)c1nc2ccccc2n([C@H]2C[C@H]3CC[C@@H](C2)N3[C@H]2C[C@@H]3CCC[C@@H](C3)C2)c1=O [Compound 361, 4-((endo)-8-((exo)-bicyclo[3.3.1]nonan-3-yl)-8-azabicyclo[3.2.1]octan-3-yl)-3-oxo-3,4-dihydroquinoxaline-2-carboxylic acid] | reduced abnormal behavioral side effects | – | – | – | – | – | – | – | – | – | – | – | 90 | 70 | – |
| O=C(O)c1nc2ccccc2n([C@H]2C[C@H]3CC[C@@H](C2)N3C2CCCCCCCCCC2)c1=O [Compound 358] | reduced abnormal behavioral side effects | – | – | – | – | – | – | – | – | – | – | – | 46 | 79 | 34 |
| C[C@@H]1C[C@@H]2C[C@H](C1)C[C@@H](N1[C@@H]3CCC[C@H]1C[C@@H](n1c(=O)c(C(=O)O)nc4ccccc41)C3)C2 [Compound 405, (exo, endo, endo)-4-(9-(7-methylbicyclo[3.3.1]nonan-3-yl)-9-azabicyclo[3.3.1]nonan-3-yl)-3-oxo-3,4-dihydroquinoxaline-2-carboxylic acid potassium salt] | – | – | – | – | – | – | – | – | 70 | 70 | 70 | – | – | – | – |
